Earlier results on one compound are cited in patent EP3653214A1, “IMPROVED DOSAGE REGIMEN FOR URSODEOXYCHOLIC ACID BASED ON ALKALINE PHOSPHATASE LEVELS IN THE TREATMENT OF CHRONIC CHOLESTATIC LIVER DISEASES” (Disphar International B.V., priority 2018, dated 2020).

For the series the following is noted: in vivo.

As for `C[C@H](CCC(=O)O)[C@H]1CC[C@H]2[C@@H]3[C@@H](O)C[C@@H]4C[C@H](O)CC[C@]4(C)[C@H]3CC[C@]12C` [UDCA, ursodeoxycholic acid], the tolerability entry is recorded as “generally well tolerated”.
